Marks after values point to notes of the source that are not given here.
T1: M5 (Homo sapiens, UniProt P08912)
T1 construct: Eurofins Cerep (external service)
T1 sequence (P08912 1-532): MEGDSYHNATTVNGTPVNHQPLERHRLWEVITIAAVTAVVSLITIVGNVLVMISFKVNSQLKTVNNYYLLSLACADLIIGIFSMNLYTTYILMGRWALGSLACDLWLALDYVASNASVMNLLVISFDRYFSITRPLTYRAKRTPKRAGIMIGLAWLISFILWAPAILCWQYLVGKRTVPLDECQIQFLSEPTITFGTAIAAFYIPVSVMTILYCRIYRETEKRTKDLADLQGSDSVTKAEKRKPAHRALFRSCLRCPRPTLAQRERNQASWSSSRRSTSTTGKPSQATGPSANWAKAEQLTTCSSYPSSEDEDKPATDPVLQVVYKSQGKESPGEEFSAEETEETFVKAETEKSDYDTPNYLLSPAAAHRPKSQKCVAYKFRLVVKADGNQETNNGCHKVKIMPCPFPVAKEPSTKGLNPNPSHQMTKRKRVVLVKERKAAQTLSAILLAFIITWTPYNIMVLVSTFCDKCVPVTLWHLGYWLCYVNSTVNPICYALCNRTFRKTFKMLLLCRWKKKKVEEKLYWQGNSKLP

T2: CCR3 (Homo sapiens, UniProt P51677)
T2 sequence (P51677 1-355): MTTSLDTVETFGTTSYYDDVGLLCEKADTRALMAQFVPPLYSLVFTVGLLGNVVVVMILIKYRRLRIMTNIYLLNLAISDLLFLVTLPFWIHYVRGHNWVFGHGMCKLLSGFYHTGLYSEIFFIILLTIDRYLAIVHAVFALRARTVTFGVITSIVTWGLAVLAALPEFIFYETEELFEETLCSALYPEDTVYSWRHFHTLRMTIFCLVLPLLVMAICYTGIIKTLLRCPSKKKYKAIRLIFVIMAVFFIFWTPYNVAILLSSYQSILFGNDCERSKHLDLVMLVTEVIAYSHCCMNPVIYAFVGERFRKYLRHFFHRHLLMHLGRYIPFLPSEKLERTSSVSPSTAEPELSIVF

T3: CXCR2 (Homo sapiens, UniProt P25025)
T3 construct: Eurofins Cerep (external service)
T3 sequence (P25025 1-360): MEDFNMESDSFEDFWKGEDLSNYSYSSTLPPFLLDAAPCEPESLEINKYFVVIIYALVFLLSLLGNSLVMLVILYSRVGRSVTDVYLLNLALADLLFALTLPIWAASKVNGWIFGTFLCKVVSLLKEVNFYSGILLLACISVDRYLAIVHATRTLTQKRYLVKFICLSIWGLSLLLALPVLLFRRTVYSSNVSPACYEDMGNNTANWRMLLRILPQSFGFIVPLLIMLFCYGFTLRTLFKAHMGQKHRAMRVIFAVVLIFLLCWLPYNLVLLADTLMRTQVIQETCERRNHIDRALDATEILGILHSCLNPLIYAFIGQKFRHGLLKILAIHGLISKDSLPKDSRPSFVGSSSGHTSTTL

T4: CXCR1 (Homo sapiens, UniProt P25024)
T4 sequence (P25024 1-350): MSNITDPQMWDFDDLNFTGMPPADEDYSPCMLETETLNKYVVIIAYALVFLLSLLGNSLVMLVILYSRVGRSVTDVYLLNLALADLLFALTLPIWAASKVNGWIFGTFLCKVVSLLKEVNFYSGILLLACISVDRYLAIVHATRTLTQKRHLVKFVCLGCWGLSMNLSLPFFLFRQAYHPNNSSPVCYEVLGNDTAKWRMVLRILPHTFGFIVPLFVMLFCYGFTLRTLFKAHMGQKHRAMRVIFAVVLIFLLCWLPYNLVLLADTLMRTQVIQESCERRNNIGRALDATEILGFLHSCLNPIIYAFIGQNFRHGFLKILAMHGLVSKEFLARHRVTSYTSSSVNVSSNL

T5: CX3CR1 (Homo sapiens, UniProt P49238)
T5 sequence (P49238 1-355): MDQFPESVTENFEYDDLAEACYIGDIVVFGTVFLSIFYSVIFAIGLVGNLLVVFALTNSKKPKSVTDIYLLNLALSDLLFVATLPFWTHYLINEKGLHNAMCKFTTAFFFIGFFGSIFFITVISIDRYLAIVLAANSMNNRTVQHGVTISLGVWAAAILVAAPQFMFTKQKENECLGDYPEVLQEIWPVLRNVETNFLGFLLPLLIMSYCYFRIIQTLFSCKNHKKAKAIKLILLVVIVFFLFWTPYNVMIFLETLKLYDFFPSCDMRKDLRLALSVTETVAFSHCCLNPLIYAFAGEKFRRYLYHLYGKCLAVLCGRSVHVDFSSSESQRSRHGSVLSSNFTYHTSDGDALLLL

B1: CX3CL1: chemokine, reference agonist for CX3CR1 (protein, UniProt P78423 25-397, looked up)
Fractalkine: QHHGVTKCNITCSKMTSKIPVALLIHYQQNQASCGKRAIILETRQHRLFCADPKEQWVKDAMQHLDRQAAALTRNGGTFEKQIGEVKPRTTPAAGGMDESVVLEPEATGESSSLEPTPSSQEAQRALGTSPELPTGVTGSSGTRLPPTPKAQDGGPVGTELFRVPPVSTAATWQSSAPHQPGPSLWAEAKTSEAPSTQDPSTQASTASSPAPEENAPSEGQRVWGQGQSPRPENSLEREEMGPVPAHTDAFQDWGPGSMAHVSVVPVSSEGTPSREPVASGSWTPKAEEPIHATMDPQRLGVLITPVPDAQAATRRQAVGLLAFLGLLFCLGVAMFTYQSLQGCPRKMAGEMAEGLRYIPRSCGSNSYVLVPV
B2: eotaxin 2: chemokine, reference agonist for CCR3 (protein, UniProt O00175 27-119, looked up)
C-C motif chemokine 24: VVIPSPCCMFFVSKRIPENRVVSYQLSSRSTCLKAGVIFTTKKGQQFCGDPKQEWVQRYMKNLDAKQKKASPRARAVAVKGPVQRYPGNQTTC

Columns and labels:
[1] = target: T1, M5; assay: Binding assay M5; details: reference compound
[2] = target: T6, human GPR17 (Homo sapiens, UniProt Q13304); assay: [35S]GTPγS binding assay; assay type: biochemical; details: for EC50: membranes of 1321N1 cells transfected with human GPR17, mean ± SEM of 3 experiments
T6 construct: HA; expressed in transfected cells
Procedure: [^35S]GTPγS binding assays were carried out as previously described. Briefly, control and astrocytoma 1321N1 cells stably transfected with human pcDNA3.1 (control cells) and human HA-tag GPR17 were homogenized in 5 mM Tris/HCl and 2 mM EDTA (pH 7.4) and centrifuged at 48,000g for 15 min at 4°C. The resulting pellets were washed in 50 mM Tris/HCl and 10 mM MgCl2 (pH 7.4). After protein dosage, aliquots of cell membranes were incubated with increasing concentrations of each investigated ligand (1 pM–10 μM) and GTPγS binding to activated G-proteins was quantified as previously described. Compounds were purchased from two external providers, i.e., Ambinter (Ambinter c/o Greenpharma, Orléans, France http://www.ambinter.com/) and Asinex (http://www.asinex.com/).
For analysis and graphic presentation of [^35S]GTPγS binding data, a nonlinear multipurpose curve fitting computer program (Graph-Pad Prism) was used. All data are presented as the mean ± SEM of three different experiments.
The selected 15 molecules were evaluated in our in-house [^35S]GTPγS functional assay in membranes from cells transfected with human GPR17. […] Moreover, this assay has been already successfully used in the past to measure the ability of both endogenous and novel synthetic compounds to activate GPR17 [25, 31]. All tested molecules were able to potently activate GPR17 with nanomolar/sub-nanomolar affinities. Concentration-response curves obtained for each selected compound are reported in S4 Fig.

[3] = target: T2, CCR3; assay: Cellular functional assay CCR3
[4] = target: T7, mGluR5 (Homo sapiens, UniProt P41594); assay: Binding assay mGluR5; details: reference compound
T7 construct: Eurofins Cerep (external service)

[5] = target: T3, CXCR2; assay: Binding assay CXCR2; details: reference compound
[6] = target: T8, CCR2 (Homo sapiens, UniProt P41597); assay: Binding assay CCR2; details: reference compound
T8 construct: Eurofins Cerep (external service)

[7] = target: P2Y; assay: Binding assay P2Y; set-up: species or system human; details: reference compound
[8] = target: T4, CXCR1; assay: Cellular functional assay CXCR1; details: reference agonist
[9] = target: T5, CX3CR1; assay: Cellular functional assay CX3CR1; details: reference agonist
[10] = standard LTD4 50 nM set to 100% († compounds)
[11] = standard LTC4 50 nM set to 100% (¶ compounds)

T6 sequence (Q13304 29-367): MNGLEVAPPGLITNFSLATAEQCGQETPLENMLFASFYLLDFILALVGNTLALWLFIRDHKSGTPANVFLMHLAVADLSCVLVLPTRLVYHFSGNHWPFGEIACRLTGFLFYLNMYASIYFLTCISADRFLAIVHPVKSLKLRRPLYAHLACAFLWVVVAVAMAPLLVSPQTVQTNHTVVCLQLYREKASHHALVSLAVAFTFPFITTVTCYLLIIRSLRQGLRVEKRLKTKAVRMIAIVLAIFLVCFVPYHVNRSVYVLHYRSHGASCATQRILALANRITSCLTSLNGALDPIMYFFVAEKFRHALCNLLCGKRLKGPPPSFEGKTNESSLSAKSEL
T8 sequence (P41597 whole entry): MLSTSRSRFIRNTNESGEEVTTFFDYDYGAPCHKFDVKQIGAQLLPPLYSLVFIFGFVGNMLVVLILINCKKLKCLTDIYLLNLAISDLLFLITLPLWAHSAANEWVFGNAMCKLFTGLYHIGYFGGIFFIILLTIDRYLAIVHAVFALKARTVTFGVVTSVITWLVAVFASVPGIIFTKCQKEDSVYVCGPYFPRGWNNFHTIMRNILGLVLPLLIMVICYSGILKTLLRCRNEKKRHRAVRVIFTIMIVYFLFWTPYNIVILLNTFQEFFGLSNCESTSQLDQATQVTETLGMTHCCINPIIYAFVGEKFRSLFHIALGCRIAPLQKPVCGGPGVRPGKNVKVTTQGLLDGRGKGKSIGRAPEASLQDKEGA
T7 sequence (P41594 21-1212): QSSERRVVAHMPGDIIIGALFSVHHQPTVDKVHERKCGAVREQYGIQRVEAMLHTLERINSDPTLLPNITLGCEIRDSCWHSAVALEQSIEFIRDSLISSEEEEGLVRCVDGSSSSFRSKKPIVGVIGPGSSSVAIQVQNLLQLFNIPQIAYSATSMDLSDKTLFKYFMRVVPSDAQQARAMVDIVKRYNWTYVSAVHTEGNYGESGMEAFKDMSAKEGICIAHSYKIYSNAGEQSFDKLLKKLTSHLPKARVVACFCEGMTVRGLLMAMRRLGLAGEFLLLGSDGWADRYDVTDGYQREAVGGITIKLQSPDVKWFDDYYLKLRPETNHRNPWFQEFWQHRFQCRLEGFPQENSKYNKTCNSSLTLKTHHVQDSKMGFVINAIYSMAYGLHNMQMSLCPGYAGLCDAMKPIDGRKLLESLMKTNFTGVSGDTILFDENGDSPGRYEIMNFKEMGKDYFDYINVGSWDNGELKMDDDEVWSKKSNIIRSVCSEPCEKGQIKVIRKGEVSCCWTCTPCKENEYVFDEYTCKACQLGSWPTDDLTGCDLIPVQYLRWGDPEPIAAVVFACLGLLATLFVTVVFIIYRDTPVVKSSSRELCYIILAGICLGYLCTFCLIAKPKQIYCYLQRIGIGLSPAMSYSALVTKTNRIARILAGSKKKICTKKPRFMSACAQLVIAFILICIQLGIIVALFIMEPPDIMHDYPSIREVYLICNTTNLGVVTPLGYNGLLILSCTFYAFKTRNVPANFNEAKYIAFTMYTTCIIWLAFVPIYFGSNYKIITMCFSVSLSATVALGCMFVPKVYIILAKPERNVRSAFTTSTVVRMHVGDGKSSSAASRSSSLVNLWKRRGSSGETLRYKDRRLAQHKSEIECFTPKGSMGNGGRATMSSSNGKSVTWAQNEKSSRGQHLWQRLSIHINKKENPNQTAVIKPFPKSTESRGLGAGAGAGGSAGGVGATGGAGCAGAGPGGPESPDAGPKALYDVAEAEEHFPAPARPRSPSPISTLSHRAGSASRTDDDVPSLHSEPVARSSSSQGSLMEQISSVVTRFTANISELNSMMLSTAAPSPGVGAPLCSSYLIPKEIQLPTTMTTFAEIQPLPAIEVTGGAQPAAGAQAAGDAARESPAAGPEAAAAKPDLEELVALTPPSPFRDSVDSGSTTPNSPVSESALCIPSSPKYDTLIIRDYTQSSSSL

Row | Molecule | EC50 [2] [nM] | Emax (% vs basal) ([2]; mean ± SEM) [%] | % Emax (ratio vs Emax of the standard) [2, 11] | also measured
1 | C[N+]1(C)CCC(OC(=O)C(c2ccccc2)c2ccccc2)CC1 [Compound 4-DAMP, 4-DAMP, reference compound] | – | – | – | IC50 [1]: 0.73 nM; Ki [1]: 0.37 nM
2 | Cn1c(SCC(=O)Nc2ccc(Cl)cc2)nnc1-c1ccc(NC(=O)c2ccccc2)cc1 [Compound 4] | 0.43 ± 0.08 | 160.0 ± 10.6 | – | % Emax (ratio vs Emax of the standard) [2, 10]: 110.8%
3 | CCc1ccccc1-n1c(SCC(=O)Nc2ccccc2Cl)nnc1-c1ccccc1O [Compound 6] | 0.52 ± 0.09 | 135.0 ± 10.2 | – | % Emax (ratio vs Emax of the standard) [2, 10]: 93.5 ^* %
4 | Cc1cccc(-c2n[nH]c(SCC(=O)Nc3cccc4ccccc34)n2)c1 [Compound 7] | 0.48 ± 0.09 | 151.3 ± 6.7 | – | % Emax (ratio vs Emax of the standard) [2, 10]: 104.8%
5 | Cc1nc2ccc(NC(=O)CSc3nnc(-c4ccccc4)[nH]3)cc2[nH]1 [Compound 8] | 0.24 ± 0.02 | 144.8 ± 6.4 | – | % Emax (ratio vs Emax of the standard) [2, 10]: 100.3%
6 | Cc1cccc(-c2n[nH]c(SCC(=O)Nc3ccccc3)n2)c1 [Compound 10] | 0.24 ± 0.06 | 142.0 ± 5.8 | – | % Emax (ratio vs Emax of the standard) [2, 10]: 98.3%
7 | COc1ccc(-n2c(SCC(=O)Nc3cc(C(C)(C)C)no3)nnc2-c2ccccc2OC)cc1 [Compound 11] | 22.5 ± 4.3 | 134.3 ± 8.8 | 95.3% | –
8 | CCOc1ccc(-n2c(SCC(=O)Nc3ccc(Cl)c(C(F)(F)F)c3)nnc2-c2cccc(C)c2)cc1 [Compound 12] | 7.11 ± 1.96 | 127.7 ± 4.1 | 90.6 ^* % | –
9 | CCOc1ccc(-n2c(SCC(=O)Nc3ccc4c(c3)OCCO4)nnc2-c2ccccc2Cl)cc1 [Compound 13] | 3.29 ± 0.28 | 141.3 ± 7.6 | 100.2% | –
10 | COc1ccc(-c2nnc(SCC(=O)Nc3ncc(Cc4ccc(Cl)cc4)s3)n2-c2ccccc2)cc1OC [Compound 14] | 2.7 ± 0.4 | 139.3 ± 2.5 | 98.8% | –
11 | COc1ccccc1-c1nnc(SCC(=O)Nc2ncc3c(n2)CCCC3=O)[nH]1 [Compound 15] | 2.9 ± 0.1 | 137.1 ± 1.3 | 97.23% | –
12 | COc1ccccc1-c1nnc(SCC(=O)Nc2ncc3c(n2)CC(C)(C)CC3=O)[nH]1 [Compound 16] | 3.45 ± 0.5 | 139.6 ± 1.5 | 99.0% | –
13 | COc1ccccc1-c1nnc(SCC(=O)Nc2nccs2)[nH]1 [Compound 17] | 8.48 ± 0.9 | 136.2 ± 0.5 | 96.6% | –
14 | O=C(CSc1nnc2n(Cc3ccc(Cl)cc3)c3ccccc3n12)N1CCc2ccccc2C1 [Compound 19] | 9.5 ± 1.47 | 153.7 ± 1.1 | 108.5 ^* % | –
15 | CC[N+]1(C/C2=C/CCCCCC2)CCC(NC(=O)C2c3cc(Cl)ccc3Oc3ccc(Cl)cc32)CC1 (stereo not shown) [Compound J113863, J113863, reference compound] | – | – | – | IC50 ([3]; reference antagonist): 8.9 nM
16 | N[C@@H](Cn1oc(=O)[nH]c1=O)C(=O)O [L-Quisqualate, reference compound] | – | – | – | IC50 [4]: 67 nM; Ki [4]: 14 nM
17 | CCCCC/C=C\C\C=C/C=C/C=C/[C@@H](SC[C@H](NC(=O)CC[C@H](N)C(=O)O)C(=O)NCC(=O)O)[C@@H](O)CCCC(=O)O [LTC4, reference compound] | – | – | – | Emax (% vs basal) ([2]; reference agonist at 50 nM): 141.0 ± 3.9%
18 | CCCCC/C=C\C\C=C/C=C/C=C/[C@@H](SC[C@H](N)C(=O)NCC(=O)O)[C@@H](O)CCCC(=O)O [LTD4, reference compound] | – | – | – | Emax (% vs basal) ([2]; reference agonist at 50 nM): 144.4 ± 7.1%
19 | IL-8: chemokine, reference compound for CXCR2 binding | – | – | – | IC50 [5]: 0.26 nM; Ki [5]: 0.12 nM
20 | MCP-1: chemokine, reference compound for CCR2 binding | – | – | – | IC50 [6]: 0.072 nM; Ki [6]: 0.029 nM
21 | dATPS [reference compound] | – | – | – | IC50 [7]: 51 nM; Ki [7]: 25 nM
22 | rhIL-8: recombinant chemokine, reference agonist for CXCR1 | – | – | – | EC50 [8]: 4.7 nM
23 | B1 | – | – | – | EC50 [9]: 2.2 nM
24 | B2 | – | – | – | EC50 ([3]; reference agonist): 6.4 nM

From publication PMC7176092, “Development of the first in vivo GPR17 ligand through an iterative drug discovery pipeline: A novel disease-modifying strategy for multiple sclerosis” (PLoS ONE, 2020)
